# Assay results published in the supplement of paper PMC7214452.
# Where a name gives a salt, the structure may show the parent alone.
# Legend:
# Assay in all cases: normalized area under the dose-response curve (viability relative to DMSO control) (fraction); higher = less sensitive (more viable cells)
# Details in all cases: exposure time not given
# AMO1 (cancer type: MM) = test system: AMO1 (cancer type: MM)
# Description: (§1)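 25 myeloma and 15 non-Hodgkin lymphoma cell lines were exposed to each of 76 drugs as 7-point log dilutions (0.01 nM–10 µM) in duplicate. Viability was read with CellTiter-Glo and normalised to DMSO (0.1%) and staurosporine (10 µM) plate controls. Normalised AUC was calculated by the trapezoidal method relative to the negative control.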
# EJM (cancer type: MM) = test system: EJM (cancer type: MM)
# Description: as §1
# FR4 (cancer type: MM) = test system: FR4 (cancer type: MM)
# Description: as §1
# [1] = test system: Granta-519 (cancer type: Mantle)
# Description: as §1
# [2] = test system: HuT 78 (cancer type: TCL)
# Description: as §1
# JJN3 (cancer type: MM) = test system: JJN3 (cancer type: MM)
# Description: as §1
# [3] = test system: JVM2 (cancer type: Mantle)
# Description: as §1
# [4] = test system: JeKo-1 (cancer type: Mantle)
# Description: as §1
# KMS11 (cancer type: MM) = test system: KMS11 (cancer type: MM)
# Description: as §1
# [5] = test system: KMS12PE (cancer type: MM)
# Description: as §1
# KMS18 (cancer type: MM) = test system: KMS18 (cancer type: MM)
# Description: as §1
# KMS26 (cancer type: MM) = test system: KMS26 (cancer type: MM)
# Description: as §1
# [6] = test system: KMS28BM (cancer type: MM)
# Description: as §1
# [7] = test system: KMS28PE (cancer type: MM)
# Description: as §1
# KMS34 (cancer type: MM) = test system: KMS34 (cancer type: MM)
# Description: as §1
# [8] = test system: Karpas-299 (cancer type: TCL)
# Description: as §1
# L363 (cancer type: MM) = test system: L363 (cancer type: MM)
# Description: as §1
# LP1 (cancer type: MM) = test system: LP1 (cancer type: MM)
# Description: as §1
# MM1.R (cancer type: MM) = test system: MM1.R (cancer type: MM)
# Description: as §1
# MM1.S (cancer type: MM) = test system: MM1.S (cancer type: MM)
# Description: as §1
# [9] = test system: Mino (cancer type: Mantle)
# Description: as §1
# My-La (cancer type: TCL) = test system: My-La (cancer type: TCL)
# Description: as §1
# [10] = test system: NCI-H929 (cancer type: MM)
# Description: as §1
# [11] = test system: OCI-LY1 (cancer type: DLBCL)
# Description: as §1
# [12] = test system: OCI-LY19 (cancer type: DLBCL)
# Description: as §1
# [13] = test system: OCI-LY3 (cancer type: DLBCL)
# Description: as §1
# [14] = test system: OCI-MY5 (cancer type: MM)
# Description: as §1
# [15] = test system: OCI-MY5/CRBN (cancer type: MM)
# Description: as §1
# [16] = test system: OCI-MY5/Vec (cancer type: MM)
# Description: as §1
# [17] = test system: OCI-MY7 (cancer type: MM)
# Description: as §1
# OPM2 (cancer type: MM) = test system: OPM2 (cancer type: MM)
# Description: as §1
# [18] = test system: RPMI 8226 (cancer type: MM)
# Description: as §1
# SKMM2 (cancer type: MM) = test system: SKMM2 (cancer type: MM)
# Description: as §1
# [19] = test system: SR-786 (cancer type: TCL)
# Description: as §1
# [20] = test system: SU-DHL1 (cancer type: TCL)
# Description: as §1
# [21] = test system: SU-DHL2 (cancer type: DLBCL)
# Description: as §1
# [22] = test system: SU-DHL6 (cancer type: DLBCL)
# Description: as §1
# Se-Ax (cancer type: TCL) = test system: Se-Ax (cancer type: TCL)
# Description: as §1
# U266 (cancer type: MM) = test system: U266 (cancer type: MM)
# Description: as §1
# XG2 (cancer type: MM) = test system: XG2 (cancer type: MM)
# Description: as §1
SMILES,normalized area under the dose-response curve (AMO1 (cancer type: MM)),normalized area under the dose-response curve (EJM (cancer type: MM)),normalized area under the dose-response curve (FR4 (cancer type: MM)),normalized area under the dose-response curve [1],normalized area under the dose-response curve [2],normalized area under the dose-response curve (JJN3 (cancer type: MM)),normalized area under the dose-response curve [3],normalized area under the dose-response curve [4],normalized area under the dose-response curve (KMS11 (cancer type: MM)),normalized area under the dose-response curve [5],normalized area under the dose-response curve (KMS18 (cancer type: MM)),normalized area under the dose-response curve (KMS26 (cancer type: MM)),normalized area under the dose-response curve [6],normalized area under the dose-response curve [7],normalized area under the dose-response curve (KMS34 (cancer type: MM)),normalized area under the dose-response curve [8],normalized area under the dose-response curve (L363 (cancer type: MM)),normalized area under the dose-response curve (LP1 (cancer type: MM)),normalized area under the dose-response curve (MM1.R (cancer type: MM)),normalized area under the dose-response curve (MM1.S (cancer type: MM)),normalized area under the dose-response curve [9],normalized area under the dose-response curve (My-La (cancer type: TCL)),normalized area under the dose-response curve [10],normalized area under the dose-response curve [11],normalized area under the dose-response curve [12],normalized area under the dose-response curve [13],normalized area under the dose-response curve [14],normalized area under the dose-response curve [15],normalized area under the dose-response curve [16],normalized area under the dose-response curve [17],normalized area under the dose-response curve (OPM2 (cancer type: MM)),normalized area under the dose-response curve [18],normalized area under the dose-response curve (SKMM2 (cancer type: MM)),normalized area under the dose-response curve [19],normalized area under the dose-response curve [20],normalized area under the dose-response curve [21],normalized area under the dose-response curve [22],normalized area under the dose-response curve (Se-Ax (cancer type: TCL)),normalized area under the dose-response curve (U266 (cancer type: MM)),normalized area under the dose-response curve (XG2 (cancer type: MM))
Cc1[nH]c2ccccc2c1CCNCc1ccc(/C=C/C(=O)NO)cc1 [Panobinostat],0.444,0.188,0.594,0.424,0.249,0.56,0.347,0.284,0.659,0.42,0.618,0.454,0.567,0.52,0.333,0.187,0.613,0.592,0.35,0.25,0.303,0.422,0.16,0.167,0.36,0.322,0.297,0.13,0.173,0.47,0.812,0.682,0.698,0.374,0.23,0.286,0.501,0.244,0.389,0.483
Cc1ccc(Nc2nccc(N(C)c3ccc4c(C)n(C)nc4c3)n2)cc1S(N)(=O)=O [Pazopanib hydrochloride],0.798,0.861,0.759,0.899,0.795,0.628,0.721,0.881,0.713,0.82,0.732,0.848,0.921,0.796,0.347,0.829,0.666,0.602,0.77,0.79,0.939,0.879,0.77,0.906,0.859,1,0.667,0.855,0.764,0.78,0.653,0.827,0.86,0.789,0.833,0.931,0.99,0.732,0.681,0.876
Nc1cccc2c1C(=O)N(C1CCC(=O)NC1=O)C2=O (stereo not given) [Pomalidomide],0.879,0.879,0.949,0.87,0.986,0.994,0.889,0.843,0.912,0.9,0.886,0.86,0.925,0.962,0.917,0.914,0.887,0.871,0.76,0.74,0.884,0.875,0.78,0.964,0.854,0.979,0.9,0.908,0.897,0.9,0.963,0.959,0.973,0.947,0.846,0.917,0.989,0.767,0.96,0.77
Cc1ccc(C(=O)Nc2ccc(CN3CCN(C)CC3)c(C(F)(F)F)c2)cc1C#Cc1cnc2cccnn12 [Ponatinib],0.431,0.427,0.451,0.755,0.527,0.344,0.44,0.52,0.458,0.48,0.479,0.593,0.551,0.501,0.298,0.719,0.461,0.408,0.5,0.57,0.501,0.615,0.52,0.678,0.726,0.859,0.361,0.665,0.613,0.48,0.419,0.237,0.55,0.673,0.239,0.797,0.79,0.417,0.381,0.454
CC(C)(C)c1cc(NC(=O)Nc2ccc(-c3cn4c(n3)sc3cc(OCCN5CCOCC5)ccc34)cc2)no1 [Quizartinib],0.837,0.861,0.923,0.941,0.865,0.631,0.764,0.98,0.828,0.87,0.737,0.934,0.838,0.898,0.439,0.93,0.751,0.766,0.69,0.82,0.863,0.917,0.88,0.987,0.923,0.959,0.65,0.917,0.894,0.91,0.531,0.955,0.973,0.869,0.686,0.956,0.907,0.825,0.867,0.763
O=C(c1ccc(OCCN2CCCCC2)cc1)c1c(-c2ccc(O)cc2)sc2cc(O)ccc12 [Raloxifene],0.704,0.859,0.896,0.939,0.786,0.821,0.884,0.939,0.866,0.91,0.848,0.869,0.889,0.849,0.657,0.945,0.829,0.731,0.89,0.85,1.01,0.974,0.91,0.932,0.914,0.945,0.744,0.857,0.787,0.92,0.865,0.86,0.953,0.78,0.677,0.919,0.856,0.854,0.814,0.746
CNC(=O)c1cc(Oc2ccc(NC(=O)Nc3ccc(Cl)c(C(F)(F)F)c3)c(F)c2)ccn1 [Regorafenib],0.549,0.589,0.642,0.901,0.697,0.436,0.715,0.879,0.546,0.62,0.553,0.844,0.565,0.695,0.35,0.892,0.54,0.558,0.53,0.52,0.899,0.84,0.56,1,0.96,0.964,0.468,0.927,0.848,0.58,0.594,0.543,0.636,0.91,0.57,0.955,0.916,0.684,0.48,0.481
C/C=C1\NC(=O)[C@H]2CSSCC/C=C/[C@H](CC(=O)N[C@H](C(C)C)C(=O)N2)OC(=O)[C@H](C(C)C)NC1=O [Romidepsin],0.224,0.105,0.152,0.209,0.0814,0.324,0.148,0.174,0.382,0.24,0.291,0.257,0.271,0.262,0.206,0.118,0.401,0.447,0.33,0.23,0.178,0.109,0.09,0.118,0.198,0.203,0.13,0.0857,0.143,0.5,0.445,0.433,0.511,0.148,0.113,0.188,0.385,0.107,0.21,0.15
